Measurements as given in US6699880B1 (priority 1999, dated 2004).

These compounds were tested against T1, human m4 receptor (Homo sapiens, UniProt P08173). Conditions: 0.01 µM.
T1 construct: expressed in transfected cells
T1 sequence (P08173 1-479): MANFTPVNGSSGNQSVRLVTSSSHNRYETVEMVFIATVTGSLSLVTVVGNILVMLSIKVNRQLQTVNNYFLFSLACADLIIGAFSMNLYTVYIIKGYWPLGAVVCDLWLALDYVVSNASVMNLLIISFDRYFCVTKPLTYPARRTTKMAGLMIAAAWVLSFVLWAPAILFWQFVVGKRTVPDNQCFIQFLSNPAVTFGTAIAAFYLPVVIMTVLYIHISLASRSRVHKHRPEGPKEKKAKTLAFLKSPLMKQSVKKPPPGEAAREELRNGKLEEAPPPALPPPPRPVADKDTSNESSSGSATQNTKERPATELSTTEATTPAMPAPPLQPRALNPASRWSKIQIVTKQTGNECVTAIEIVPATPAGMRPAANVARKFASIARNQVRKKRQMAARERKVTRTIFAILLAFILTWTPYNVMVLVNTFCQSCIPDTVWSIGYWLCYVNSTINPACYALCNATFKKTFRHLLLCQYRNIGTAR
Assay type: cell-based

Compound | Agonist Activity (%) (M4 Receptors-Stimulating Activity)
C#CCn1c(=O)n(C2CCN(C3CCN(C(=O)OC)CC3)CC2)c2ccccc21 [Example 1, 1-[1-(1-methoxycarbonylpiperidin-4-yl)-piperidin-4-yl]-3-(2-propinyl)-1,3-dihydro-2H-benzimidazol-2-one] | 91
C=CCn1c(=O)n(C2CCN(C3CCN(C(=O)OC)CC3)CC2)c2ccccc21 [Example 2, 1-[1-(1-methoxycarbonylpiperidin-4-yl)-piperidin-4-yl]-3-(2-propenyl)-1,3-dihydro-2H-benzimidazol-2-one] | 96
CCCCn1c(=O)n(C2CCN(C3CCN(C(=O)OC)CC3)CC2)c2ccccc21 [Example 3, 1-[1-(1-methoxycarbonylpiperidin-4-yl)-piperidin-4-yl]-3-n-butyl-1,3-dihydro-2H-benzimidazol-2-one] | 101
COC(=O)N1CCC(N2CCC(n3c(=O)n(C)c4ccccc43)CC2)CC1 [Example 4, 1-[1-(1-methoxycarbonylpiperidin-4-yl)-piperidin-4-yl]-3-methyl-1,3-dihydro-2H-benzimidazol-2-one] | 96
COC(=O)N1CCC(N2CCC(n3c(=O)n(CC(F)(F)F)c4ccccc43)CC2)CC1 [Example 5, 1-[1-(1-methoxycarbonylpiperidin-4-yl)-piperidin-4-yl]-3-(2,2,2-trifluoroethyl)-1,3-dihydro-2H-benzimidazol-2-one] | 90
COC(=O)Cn1c(=O)n(C2CCN(C3CCN(C(=O)OC)CC3)CC2)c2ccccc21 [Example 6, 1-[1-(1-methoxycarbonylpiperidin-4-yl)-piperidin-4-yl]-3-(methoxycarbonylmethyl)-1,3-dihydro-2H-benzimidazol-2-one] | 92
COC(=O)N1CCC(N2CCC(n3c(=O)n(CC(C)=O)c4ccccc43)CC2)CC1 [Example 7, 1-[1-(1-methoxycarbonylpiperidin-4-yl)-piperidin-4-yl]-3-(2-oxopropyl)-1,3-dihydro-2H-benzimidazol-2-one] | 97
COC(=O)N1CCC(N2CCC(n3c(=O)n(CCN)c4ccccc43)CC2)CC1 [Example 8, 1-[1-(1-methoxycarbonylpiperidin-4-yl)-piperidin-4-yl]-3-(2-aminoethyl)-1,3-dihydro-2H-benzimidazol-2-one] | 95
COC(=O)N1CCC(N2CCC(n3c(=O)n(C(C)=O)c4ccccc43)CC2)CC1 [Example 12, 1-[1-(1-methoxycarbonylpiperidin-4-yl)-piperidin-4-yl]-3-acetyl-1,3-dihydro-2H-benzimidazol-2-one] | 95
CCOC(=O)N1CCC(N2CCC(n3c(=O)n(S(C)(=O)=O)c4ccccc43)CC2)CC1 [Example 20, 1-[1-(1-ethoxycarbonylpiperidin-4-yl)-piperidin-4-yl]-3-(methylsulfonyl)-1,3-dihydro-2H-benzimidazol-2-one] | 94
